Several values for one entry are separate records, joined by “and”; a condition that tells them apart may be missing. Identical values can stand only once. Like-named read-outs stand apart in the source and are kept apart here.
What was measured:
[1] = tested on: HBV replicative plasmid pAAV-HBV1.2× in C57BL/6 mice; test: Hydrodynamic injection mouse model (pAAV-HBV1.2×, C57BL/6 mice); type: in vivo; details: for HBsAg, Sample1-5: single samples
[2] = tested on: HBV (genotype D) in PXB mice; details: for ALT(ng/mL), Sample1-3 / HBeAg(Signal to control ratio), Sample1-3 / HBsAg(ng/mL), Sample1-3 / Human albumin(g/dL), Sample1-3: individual samples
[3] = tested on: HBV cccDNA in HepG2-NTCP cells; test: In vitro HBV infection model, HepG2-NTCP cells: intracellular cccDNA; details: HepG2-NTCP
Description: (§5) HepG2 and Huh-7 cells permanently expressing NTCP were generated by infecting them with an NTCP-encoding recombinant retrovirus and isolating GFP-expressing cells.
(§6) The isolated intracellular HBV DNA was subjected to PCR with an HBV DNA primer and probe set (Supplementary Table 1). cccDNA was isolated by the Hirt extraction method[54]. Briefly, the cells were lysed in SDS lysis buffer (50 mM Tris-HCl, pH 8.0, 10 mM EDTA, 150 mM NaCl, 1% SDS), and the lysates were mixed with KCl to a final concentration of 0.5 M. After incubation at 4 °C for 30 min, each lysate was centrifuged and the supernatant was extracted three times with phenol and once with chloroform. The DNA was then recovered by ethanol precipitation, and treated with T5 nuclease (10 U per μg for 0.5 h, M0363, New England Biolabs), and the enzyme was subsequently heat-denatured at 70 °C. The isolated cccDNA was subjected to PCR with a cccDNA primer and probe set (Supplementary Table 1).
(§7) HepG2-NTCP and Huh-7-NTCP cells were cultured in 12-well plates with the indicated compound(s) for 4 h, after which the cells were infected with HBV particles (10^7 viral genome equivalent per mL, genotype D) and treated with the indicated compound(s) for another 16 h. […]
(§8) Quantitative PCR with an HBV DNA primer and probe set was used to measure intracellular
(§9) cccDNA. The data are expressed as means ± SDs. […]

[4] = tested on: HBV cccDNA in Huh-7-NTCP cells; test: In vitro HBV infection model, Huh-7-NTCP cells: intracellular cccDNA; details: Huh-7-NTCP
Description: as §5, §6, §7, §8, §9

Huh-7 cells = test: in vitro; type: cell-based, human; details: Huh7+HBV 1.2X; With DFO; Concentration 0 μM
Description: (§1) Supplementary Fig. 11. Effect of FBS serum iron level on Huh-7, HepG2, and HepG2.2.15 cell
(§2) a Cells were maintained in medium supplemented with 2% FBS or 10% FBS for 1 day and treated with
(§3) After 6 days, cytotoxicity was measured. b Cells were treated with
(§4) the ± SD. *p < 0.05 by unpaired two-tailed Student’s t-test.

HepG2 cells = test: in vitro; type: cell-based, human; details: HepG2+HBV 1.2X; With DFO; Concentration 0 μM
Description: as §1, §2, §3, §4

HepG2.2.15 cells = details: HepG2.2.15; With DFO; Concentration 0 μM
crystal structure = molecular target: the molecule itself; test: crystal structure
[5] = 5 mg per kg oral daily, by day 5

C[C@H](Cn1cnc2c(N)ncnc21)OCP(=O)(O)O [TDF, tenofovir]
HBV core protein levels in the liver [1, 5]: reduced HBV core protein levels in the liver | serum HBV DNA levels [1, 5]: significantly lowered serum HBV DNA levels | HBsAg, AVERAGE ([1]; day 2): 271.658 ng/mL | HBsAg, AVERAGE ([1]; day 3): 286.73 ng/mL | HBsAg, AVERAGE ([1]; day 4): 300.864 ng/mL | HBsAg, AVERAGE ([1]; day 5): 301.678 ng/mL | HBsAg, Sample1-5 ([1]; day 2): 271.684 ng/mL and 284.96 ng/mL and 258.424 ng/mL and 258.29 ng/mL and 284.933 ng/mL | HBsAg, Sample1-5 ([1]; day 3): 286.759 ng/mL and 301.375 ng/mL and 272.159 ng/mL and 272.011 ng/mL and 301.346 ng/mL | HBsAg, Sample1-5 ([1]; day 4): 300.869 ng/mL and 303.445 ng/mL and 298.296 ng/mL and 298.27 ng/mL and 303.44 ng/mL | HBsAg, Sample1-5 ([1]; day 5): 301.701 ng/mL and 312.285 ng/mL and 291.119 ng/mL and 291.012 ng/mL and 312.273 ng/mL | intrahepatic cccDNA ([2]; 5 mg per kg oral daily, by week 5): significantly reduced the amount of intrahepatic cccDNA | HBeAg levels ([2]; 5 mg per kg oral daily, by week 5, compared to control): significantly decreased HBeAg levels | cccDNA, individual samples ([2]; Figure 7g, Sample1-3): 0.17 log copies/cell and 0.21 log copies/cell and 0.12 log copies/cell | cccDNA, AVERAGE ([2]; Figure 7g, average of 3 samples): 0.166 log copies/cell | Serum HBV DNA, AVERAGE ([2]; mouse, in vivo): 4.377 log copies/mL | Serum HBV DNA, individual samples ([2]; mouse, in vivo): 4.385 log copies/mL and 3.759 log copies/mL and 4.998 log copies/mL | Serum ALT levels ([2]; mouse, in vivo, po): decreased | ALT(ng/mL), AVERAGE ([2]; week 0): 115.048 ng/mL | HBeAg(Signal to control ratio), AVERAGE ([2]; week 0): 3.779 Signal to control ratio | HBsAg(ng/mL), AVERAGE ([2]; week 0): 399.9 ng/mL | Human albumin(g/dL), AVERAGE ([2]; week 0): 4.601 g/dL | ALT(ng/mL), Sample1-3 ([2]; week 0): 115.042 ng/mL and 132.129 ng/mL and 97.9737 ng/mL | HBeAg(Signal to control ratio), Sample1-3 ([2]; week 0): 3.7788 Signal to control ratio and 3.545 Signal to control ratio and 4.013 Signal to control ratio | HBsAg(ng/mL), Sample1-3 ([2]; week 0): 400.008 ng/mL and 382.767 ng/mL and 416.907 ng/mL | Human albumin(g/dL), Sample1-3 ([2]; week 0): 4.6008 g/dL and 4.367 g/dL and 4.835 g/dL | ALT(ng/mL), AVERAGE ([2]; week 1): 115.048 ng/mL | HBeAg(Signal to control ratio), AVERAGE ([2]; week 1): 3.705 Signal to control ratio | HBsAg(ng/mL), AVERAGE ([2]; week 1): 397.7 ng/mL | Human albumin(g/dL), AVERAGE ([2]; week 1): 4.701 g/dL | ALT(ng/mL), Sample1-3 ([2]; week 1): 115.042 ng/mL and 132.61 ng/mL and 97.4937 ng/mL | HBeAg(Signal to control ratio), Sample1-3 ([2]; week 1): 3.705 Signal to control ratio and 3.582 Signal to control ratio and 3.828 Signal to control ratio | HBsAg(ng/mL), Sample1-3 ([2]; week 1): 397.708 ng/mL and 379.982 ng/mL and 415.082 ng/mL | Human albumin(g/dL), Sample1-3 ([2]; week 1): 4.7008 g/dL and 4.578 g/dL and 4.824 g/dL | ALT(ng/mL), AVERAGE ([2]; week 2): 67.3429 ng/mL | HBeAg(Signal to control ratio), AVERAGE ([2]; week 2): 3.6862 Signal to control ratio | HBsAg(ng/mL), AVERAGE ([2]; week 2): 390.5 ng/mL | Human albumin(g/dL), AVERAGE ([2]; week 2): 4.6007 g/dL | ALT(ng/mL), Sample1-3 ([2]; week 2): 67.3361 ng/mL and 86.0047 ng/mL and 48.688 ng/mL | HBeAg(Signal to control ratio), Sample1-3 ([2]; week 2): 3.6863 Signal to control ratio and 3.541 Signal to control ratio and 3.831 Signal to control ratio | HBsAg(ng/mL), Sample1-3 ([2]; week 2): 390.508 ng/mL and 371.671 ng/mL and 408.971 ng/mL | Human albumin(g/dL), Sample1-3 ([2]; week 2): 4.6008 g/dL and 4.456 g/dL and 4.746 g/dL | ALT(ng/mL), AVERAGE ([2]; week 3): 35.9023 ng/mL | HBeAg(Signal to control ratio), AVERAGE ([2]; week 3): 3.392 Signal to control ratio | HBsAg(ng/mL), AVERAGE ([2]; week 3): 386.5 ng/mL | Human albumin(g/dL), AVERAGE ([2]; week 3): 4.4 g/dL | HBeAg(Signal to control ratio), Sample1-3 ([2]; week 3): 3.3922 Signal to control ratio and 2.738 Signal to control ratio and 4.046 Signal to control ratio | HBsAg(ng/mL), Sample1-3 ([2]; week 3): 386.508 ng/mL and 366.308 ng/mL and 406.308 ng/mL | Human albumin(g/dL), Sample1-3 ([2]; week 3): 4.4008 g/dL and 3.746 g/dL and 5.054 g/dL | ALT(ng/mL), AVERAGE ([2]; week 4): 31.5198 ng/mL | HBeAg(Signal to control ratio), AVERAGE ([2]; week 4): 3.246 Signal to control ratio | HBsAg(ng/mL), AVERAGE ([2]; week 4): 375.5 ng/mL | Human albumin(g/dL), AVERAGE ([2]; week 4): 4.601 g/dL | HBeAg(Signal to control ratio), Sample1-3 ([2]; week 4): 3.2465 Signal to control ratio and 2.922 Signal to control ratio and 3.57 Signal to control ratio | HBsAg(ng/mL), Sample1-3 ([2]; week 4): 375.508 ng/mL and 355.54 ng/mL and 395.08 ng/mL | Human albumin(g/dL), Sample1-3 ([2]; week 4): 4.6008 g/dL and 4.276 g/dL and 4.924 g/dL | ALT(ng/mL), AVERAGE ([2]; week 5): 19.0197 ng/mL | HBeAg(Signal to control ratio), AVERAGE ([2]; week 5): 3.146 Signal to control ratio | HBsAg(ng/mL), AVERAGE ([2]; week 5): 370.7 ng/mL | Human albumin(g/dL), AVERAGE ([2]; week 5): 4.801 g/dL | HBeAg(Signal to control ratio), Sample1-3 ([2]; week 5): 3.1465 Signal to control ratio and 2.933 Signal to control ratio and 3.359 Signal to control ratio | HBsAg(ng/mL), Sample1-3 ([2]; week 5): 370.708 ng/mL and 351.467 ng/mL and 389.567 ng/mL | Human albumin(g/dL), Sample1-3 ([2]; week 5): 4.8008 g/dL and 4.588 g/dL and 5.014 g/dL | cccDNA levels [3]: reduced cccDNA levels | cccDNA levels [4]: reduced cccDNA levels

CC(=O)N(O)CCCCCNC(=O)CCC(=O)N(O)CCCCCNC(=O)CCC(=O)N(O)CCCCCN [DFO]
Cell viability(%), AVERAGE, DFO alone (Huh-7 cells): 97.5263% | Cell viability(%), AVERAGE, DFO alone (HepG2 cells): 98.1893% | Cell viability(%), AVERAGE, DFO alone (HepG2.2.15 cells): 97.6681%

B1: Cp149-Y132A (Y132A mutant of Cp149) (domain or fragment)
chain: MDIDPYKEFGATVELLSFLPSDFFPSVRDLLDTAAALYRDALESPEHCSPHHTALRQAILCWGDLMTLATWVGTNLEDPASRDLVVSYVNTNVGLKFRQLLWFHISCLTFGRETVLEYLVSFGVWIRTPPAARPPNAPILSTLPETTVV
notes: source: E. coli BL21 (DE3), purified (Ni-NTA, thrombin, HiTrap Q anion exchange)
stoichiometry N (crystal structure): 6

Reference: paper PMC6522524 (Nature Communications, 2019)
